According to publication PMC9004346, “Development of small cyclic peptides targeting the CK2α/β interface” (Chemical Communications (Cambridge, England), 2022):
Like-named read-outs stand apart in the source and are kept apart here.

In the case of CC8RLYGFKWC8, the ring closure, yield after HPLC (thioether bond, 27-membered ring, I2, H2O/MeCN, 0.46 mM) is reported as 25%.
For GXC1RLYGFKWHXC1GG, the ring closure, yield after HPLC (crosslinker bond, 39-membered ring, 3,5-diethynylbenzoic acid/CuSO4/THPTA/Na ascorbate, tBuOH/H2O 1:1, 0.48 mM) was 2%.
CC7RLYGFKCC7 gave a ring closure, yield after HPLC (crosslinker bond, 33-membered ring, N-(4,6-divinylpyrimidin-2-yl)-N-methylglycine, phosphate buffer pH 8/DMF, 1.6 mM) of 17%.
CC4RLYGFKCC4 showed a ring closure, yield after HPLC (crosslinker bond, 29-membered ring, TCEP, dichloroacetone, phosphate buffer pH 8/DMF 1:2, 1.3 mM) of 8%.
With CC6RLYGFKCC6 the ring closure, yield after HPLC (crosslinker bond, 27-membered ring, TCEP/K2CO3, CH2I2/NEt3, H2O/THF, 3.7 mM) was 19%.
In the case of JC3RLYGFKXC3, the ring closure, yield after HPLC (triazole bond, 26-membered ring, [Cp*RuCl]4 30 mol%, tBuOH/H2O 1:1, 0.61 mM) is reported as 3%.
JC2RLYGFKXC2 showed a ring closure, yield after HPLC (triazole bond, 27-membered ring, CuSO4/Na ascorbate/DIEA, H2O, 1.3 mM) of 19%.
